The values below come from ChEMBL document CHEMBL5620415, “Design, synthesis and anti-hepatic fibrosis activity of novel diphenyl vitamin D receptor agonists” (Eur J Med Chem, 2023).

The source made the active and inactive calls. The calls are words filed in the database; no cut-off is given here.

For data set [1], the system named is Mus musculus. Put plainly: Anti-fibrotic effect in CCl4-induced hepatic fibrosis C57BL/6 mouse model assessed as decrease in inflammatory cell infiltration at 500 ug/kg, po five times a week for 2 weeks by Masson's Trichrome staining based assay. It is filed as functional, organism-based. The note with it: dose 500.0 µg/kg.
In data set [2] the test system is Mus musculus. In words: Anti-fibrotic effect in CCl4-induced hepatic fibrosis C57BL/6 mouse model assessed as inhibition of collagen deposition at 500 ug/kg, po five times a week for 2 weeks by Hematoxylin-Eosin (H&E) staining based assay. The format is functional, organism-based. Particulars: dose 500.0 µg/kg.
Data set [3] relates to Mus musculus. Put plainly: Anti-fibrotic effect in CCl4-induced hepatic fibrosis C57BL/6 mouse model assessed as reduction in hepatic fibrosis lesions at 500 ug/kg, po five times a week for 2 weeks by Masson's Trichrome staining based assay. The format is functional, organism-based. The note with it: dose 500.0 µg/kg.
Data set [4] concerns Mus musculus. Put plainly: Anti-fibrotic effect in improving CCl4-induced hepatic fibrosis C57BL/6 mouse model assessed as decrease in liver to kidney brightness ratio at 500 ug/kg, po five times a week for 2 weeks by qualitative ultrasound imaging analysis. The format is functional, organism-based. Particulars: dose 500.0 µg/kg.
Data set [5] has as its system Mus musculus. In words: Anti-fibrotic effect in CCl4-induced hepatic fibrosis C57BL/6 mouse model assessed as inhibition of proliferation of fibrous tissue at 500 ug/kg, po five times a week for 2 weeks by Masson's Trichrome […] staining based assay. It is filed as functional, organism-based. Particulars: dose 500.0 µg/kg.
The subject of data set [6] is Mus musculus. In words: Anti-fibrotic effect in CCl4-induced hepatic fibrosis C57BL/6 mouse model assessed as inhibition of collagen deposition at 500 ug/kg, po five times a week for 2 weeks by Masson's Trichrome […] staining based assay. The format is functional, organism-based. The note with it: dose 500.0 µg/kg.
The test system of data set [7] is Mus musculus. Put plainly: Anti-fibrotic effect in CCl4-induced hepatic fibrosis C57BL/6 mouse model assessed as reduction the lesions at 500 ug/kg, po five times a week for 2 weeks by Hematoxylin-Eosin (H&E) staining based assay. The format is functional, organism-based. Particulars: dose 500.0 µg/kg.
Data set [8] deals with LX-2. Put plainly: Inhibition of TGF-beta1 induced human LX-2 cell activation assessed as inhibition of collagen I expression at 0.5 uM by Western blot analysis relative to control. It is filed as functional, cell-based. (In general: Immunoblotting shows a protein as a band on a membrane.)
Data set [9] concerns Mus musculus. In words: Anti-fibrotic effect in improving CCl4-induced hepatic fibrosis C57BL/6 mouse model assessed as uniform liver parenchyma at 500 ug/kg, po five times a week for 2 weeks by qualitative ultrasound imaging analysis. The format is functional, organism-based. The note with it: dose 500.0 µg/kg.
The nature of data set [10]: Cytotoxicity against human LX-2 cells by CCK-8 assay. The format is toxicity, cell-based.
Data set [11] deals with T1, Vitamin D3 receptor (Homo sapiens) (UniProt P11473).
T1 sequence (whole entry): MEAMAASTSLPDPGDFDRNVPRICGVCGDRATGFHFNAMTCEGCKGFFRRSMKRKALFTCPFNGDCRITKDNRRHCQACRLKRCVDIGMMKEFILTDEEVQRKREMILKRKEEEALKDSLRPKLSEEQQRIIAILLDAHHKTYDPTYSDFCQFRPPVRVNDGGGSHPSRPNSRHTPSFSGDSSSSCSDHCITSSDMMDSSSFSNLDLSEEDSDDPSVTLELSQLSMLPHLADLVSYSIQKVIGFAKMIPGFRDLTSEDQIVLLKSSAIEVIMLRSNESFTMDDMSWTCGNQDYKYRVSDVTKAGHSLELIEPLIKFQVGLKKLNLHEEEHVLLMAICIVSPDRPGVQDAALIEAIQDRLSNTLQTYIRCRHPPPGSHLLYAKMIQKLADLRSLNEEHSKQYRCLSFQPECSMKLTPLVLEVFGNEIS
In words: Agonist activity at Vitamin D receptor in HEK293 cells assessed as receptor transactivation incubated for 48 hrs by dual-luciferase reporter assay. The format is cell-based. The note with it: filed as agonist, dose 0.01-1 µM. A general note: A reporter such as luciferase makes a cellular process visible.

In data set [12] the test system is Mus musculus. In words: Anti-fibrotic effect in CCl4-induced hepatic fibrosis C57BL/6 mouse model assessed as inhibition of serum ALT level at 500 ug/kg, po five times a week for 2 weeks. The format is functional, organism-based. Particulars: dose 500.0 µg/kg.
Data set [13] addresses T1, Vitamin D3 receptor (Homo sapiens). Put plainly: Agonist activity at Vitamin D receptor in human LX-2 cells assessed as transcriptional activity by measuring induction of CYP24A expression at 0.5 uM by RT-qPCR analysis relative to control. The format is cell-based.
Data set [14] concerns Mus musculus. Put plainly: Anti-fibrotic effect in CCl4-induced hepatic fibrosis C57BL/6 mouse model assessed as reduction the lesions at 500 ug/kg, po five times a week for 2 weeks by Masson's Trichrome staining based assay. The note with it: dose 500.0 µg/kg. The format is functional, organism-based.
The target in data set [15] is T1, Vitamin D3 receptor (Homo sapiens). In words: Binding affinity to human full-length Vitamin D receptor assessed as relative binding affinity at 1 uM incubated for 2 hrs by fluorescence polarization based competitive binding assay relative to calcipotriol. The note with it: filed as agonist. Background: Polarisation of emitted light reports the rotation of a fluorescent probe.

The subject of data set [16] is Mus musculus. Put plainly: Anti-fibrotic effect in CCl4-induced hepatic fibrosis C57BL/6 mouse model assessed as inhibition of serum AST level at 500 ug/kg, po five times a week for 2 weeks. It is filed as functional, organism-based. Particulars: dose 500.0 µg/kg.
In data set [17] the test system is Mus musculus. In words: Anti-fibrotic effect in CCl4-induced hepatic fibrosis C57BL/6 mouse model assessed as inhibition of serum total bile acid (TBA) level at 500 ug/kg, po five times a week for 2 weeks. It is filed as functional, organism-based. Particulars: dose 500.0 µg/kg.
Data set [18] has as its system LX-2. In words: Inhibition of TGF-beta1 induced human LX-2 cell activation assessed as inhibition of alpha-SMA expression at 0.5 uM by Western blot analysis relative to control. The format is functional, cell-based.
For data set [19], the system named is Mus musculus. Put plainly: Anti-fibrotic effect in CCl4-induced hepatic fibrosis C57BL/6 mouse model assessed as reduction in hepatic fibrosis lesions at 500 ug/kg, po five times a week for 2 weeks by Hematoxylin-Eosin (H&E) staining based assay. The note with it: dose 500.0 µg/kg. The format is functional, organism-based.
Data set [20] deals with Mus musculus. Put plainly: Anti-fibrotic effect in CCl4-induced hepatic fibrosis C57BL/6 mouse model assessed as decrease in inflammatory cell infiltration at 500 ug/kg, po five times a week for 2 weeks by Hematoxylin-Eosin (H&E) staining based assay. The format is functional, organism-based. The note with it: dose 500.0 µg/kg.
Data set [21] concerns Mus musculus. In words: Anti-fibrotic effect in CCl4-induced hepatic fibrosis C57BL/6 mouse model assessed as inhibition of proliferation of fibrous tissue at 500 ug/kg, po five times a week for 2 weeks by Hematoxylin-Eosin (H&E) staining based assay. It is filed as functional, organism-based. The note with it: dose 500.0 µg/kg.
The nature of data set [22]: Toxicity in CCl4-induced hepatic fibrosis C57BL/6 mouse model assessed as serum hypercalcemia at 100 ug/kg, po five times a week for 2 weeks by calcium assay kit. The format is organism-based. Particulars: in vivo, 0.1 mg/kg, 336 h, dose 100 µg/kg.

As to `CCC(Oc1ccc(CO)c(CO)c1)c1cccc(OCCCC(O)(CC)CC)c1` (stereo unspecified), the result in [1], in data set [2], in data set [3], in [4], in [5] and in data set [6] was Active. For the same compound, the result in data set [7], in [9], in data set [12], in data set [13] (filed as agonist), in [14] and in [16] was Active. Also, the outcome in [17], in [19], in data set [20] and in [21] was Active. The inhibition entry in data set [8] and in [18] was “Active” in each case. For the same compound, the IC50 in [10] is above 30 µM. In addition, the Activity entry in data set [11] is “Dose-Dependent Effect”. Further, the RBA in data set [15] stood at 54.3%.

Take `CCC(O)(CC)CCCOc1cccc(/C=C/c2ccc(CO)c(CO)c2)c1`: the outcome in [1], in data set [2], in [3], in data set [4], in [5] and in [6] was Active. For the same compound, the outcome in [7], in [9], in data set [12], in data set [13] (filed as agonist), in [14] and in data set [16] was Active. Further, the outcome in data set [17], in data set [19], in [20] and in [21] was Active. Also, the IC50 in data set [10] is above 30 µM. In data set [11], the Activity entry is “Dose-Dependent Effect”. Also, the RBA in data set [15] amounted to 48%.

Take `C=C1/C(=C\C=C2/CCC[C@]3(C)[C@@H]([C@H](C)/C=C/[C@@H](O)C4CC4)CC[C@@H]23)C[C@@H](O)C[C@@H]1O` [CALCIPOTRIENE]: in [22], the Activity result was “Non-Toxic”.

In the case of `CCC(O)(CC)CCCCOc1ccc(CCc2ccc(CO)c(CO)c2)cc1`, the IC50 in data set [10] is above 30 µM. The result in data set [13] was inactive. Further, the RBA in data set [15] was found to be 44.5%.

Regarding `CCn1c(C(=O)N[C@@H](C)CO)ccc1C(CC)(CC)c1ccc(OCC(O)C(C)(C)C)c(C)c1` (stereo partly specified), the outcome in [1], in [2], in data set [3], in data set [4], in data set [5] and in data set [6] was Active. Besides, the outcome in data set [7], in [9], in data set [14], in data set [19], in data set [20] and in data set [21] was Active.

The term IC50 denotes the concentration needed to halve the response being measured. A higher IC50 goes with weaker potency.
